Laboratory results published in ChEMBL document CHEMBL1201862, “PubChem BioAssay data set” (2004).
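Results reflect a 48-hour exposure of cells in 96-well plates to compound at five concentrations. GI50: concentration for 50% inhibition of growth.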 Activity calls are given as the source filed them. No stated cut-off is given here; in the data, active = GI50 up to about 1.1 µM and inactive = higher.

Experiments:
Assay in all cases: inhibition of tumour cell growth, NCI panel, 48 h
OVCAR-8 = tested on: OVCAR-8
SW-620 = tested on: SW-620
SF-539 = tested on: SF-539
K562 = tested on: K562
NCI-H522 = tested on: NCI-H522
LOX IMVI = tested on: LOX IMVI
PC-3 = tested on: PC-3
HCT-116 = tested on: HCT-116
NCI-H23 = tested on: NCI-H23
KM12 = tested on: KM12
HT-29 = tested on: HT-29
SNB-75 = tested on: SNB-75
RPMI-8226 = tested on: RPMI-8226
UO-31 = tested on: UO-31
MOLT-4 = tested on: MOLT-4
COLO 205 = tested on: COLO 205
OVCAR-5 = tested on: OVCAR-5
OVCAR-4 = tested on: OVCAR-4
A498 = tested on: A498
U-251 = tested on: U-251

| Structure (SMILES) | GI50 (OVCAR-8) | GI50 (SW-620) | GI50 (SF-539) | GI50 (K562) | GI50 (NCI-H522) | GI50 (LOX IMVI) | GI50 (PC-3) | GI50 (HCT-116) | GI50 (NCI-H23) | GI50 (KM12) | GI50 (HT-29) | GI50 (SNB-75) | GI50 (RPMI-8226) | GI50 (UO-31) | GI50 (MOLT-4) | GI50 (COLO 205) | GI50 (OVCAR-5) | GI50 (OVCAR-4) | GI50 (A498) | GI50 (U-251) |
| --- | --- | --- | --- | --- | --- | --- | --- | --- | --- | --- | --- | --- | --- | --- | --- | --- | --- | --- | --- | --- |
| CCOC(C[Se]CC(OCC)OCC)OCC | 27.2 µM (inactive) | 85.3 µM (inactive) | 28.7 µM (inactive) | > 100 µM (inactive) | > 100 µM (inactive) | 22.9 µM (inactive) | 37.9 µM (inactive) | 32.7 µM (inactive) | 34.2 µM (inactive) | 53.2 µM (inactive) | 64.9 µM (inactive) | 13.2 µM (inactive) | > 100 µM (inactive) | 38.6 µM (inactive) | 37.8 µM (inactive) | > 100 µM (inactive) | 96.6 µM (inactive) | 45.3 µM (inactive) | > 100 µM (inactive) | 14.6 µM (inactive) |
| COc1cc([C@@H]2C3C(=O)c4ccccc4C3[C@@H](c3cc(OC)c(OC)c(OC)c3)C23Cc2ccccc2C3=O)cc(OC)c1OC (stereo not given in full) | > 100 µM (inactive) | > 100 µM (inactive) | > 100 µM (inactive) | > 100 µM (inactive) | > 100 µM (inactive) | > 100 µM (inactive) | > 100 µM (inactive) | > 100 µM (inactive) | > 100 µM (inactive) | > 100 µM (inactive) | > 100 µM (inactive) | 21.8 µM (inactive) | 37.8 µM (inactive) | > 100 µM (inactive) | > 100 µM (inactive) | > 100 µM (inactive) | > 100 µM (inactive) | > 100 µM (inactive) | > 100 µM (inactive) | > 100 µM (inactive) |
| CC1(C)OC(=C(C#N)C#N)C(C#N)=C1/C=C/c1ccncc1 | 1.75 µM (inactive) | 2.27 µM (inactive) | 1.8 µM (inactive) | 3.14 µM (inactive) | 2.05 µM (inactive) | 1.86 µM (inactive) | 2.29 µM (inactive) | 1.91 µM (inactive) | 2.35 µM (inactive) | 3.8 µM (inactive) | 2.11 µM (inactive) | 3.05 µM (inactive) | 1.65 µM (inactive) | 3.24 µM (inactive) | 2.03 µM (inactive) | 1.88 µM (inactive) | 2.89 µM (inactive) | 2.96 µM (inactive) | 7.69 µM (inactive) | 1.85 µM (inactive) |
| COc1ccc2c(c1)c(=O)c1c(NCCCN(C)C)ccc3ncn2c31 | 0.495 µM (active) | 1.01 µM (active) | 3.93 µM (inactive) | 2.92 µM (inactive) | 0.993 µM (active) | 1.54 µM (inactive) | 2.65 µM (inactive) | 0.188 µM (active) | 5.87 µM (inactive) | 1.38 µM (inactive) | 1.13 µM (inactive) | 6.3 µM (inactive) | 1.29 µM (inactive) | 2.62 µM (inactive) | 0.215 µM (active) | 2.8 µM (inactive) | 12.3 µM (inactive) | 1.15 µM (inactive) | 11.2 µM (inactive) | 1.35 µM (inactive) |
| COc1cccc2c1C(=O)OC2c1cccc2ccccc12 (stereo not given) | 56.4 µM (inactive) | > 100 µM (inactive) | 63.7 µM (inactive) | > 100 µM (inactive) | > 100 µM (inactive) | > 100 µM (inactive) | > 100 µM (inactive) | > 96.6 µM (inactive) | > 100 µM (inactive) | > 100 µM (inactive) | > 100 µM (inactive) | 23.8 µM (inactive) | > 100 µM (inactive) | > 100 µM (inactive) | > 100 µM (inactive) | > 100 µM (inactive) | > 100 µM (inactive) | 37.8 µM (inactive) | > 52.5 µM (inactive) | 67.5 µM (inactive) |
| CCOC(=O)C(NC(=O)OCc1ccccc1)C(=O)O (stereo not given) | > 100 µM (inactive) | > 100 µM (inactive) | > 100 µM (inactive) | > 100 µM (inactive) | > 100 µM (inactive) | > 100 µM (inactive) | > 100 µM (inactive) | > 100 µM (inactive) | > 100 µM (inactive) | > 100 µM (inactive) | > 100 µM (inactive) | > 100 µM (inactive) | > 100 µM (inactive) | > 100 µM (inactive) | > 100 µM (inactive) | > 100 µM (inactive) | > 100 µM (inactive) | > 100 µM (inactive) | > 100 µM (inactive) | > 100 µM (inactive) |
| O=C(c1ccccn1)c1nnn2ccccc12 | > 100 µM (inactive) | > 100 µM (inactive) | > 100 µM (inactive) | > 100 µM (inactive) | > 100 µM (inactive) | > 100 µM (inactive) | > 100 µM (inactive) | > 100 µM (inactive) | > 100 µM (inactive) | > 100 µM (inactive) | > 100 µM (inactive) | > 100 µM (inactive) | > 100 µM (inactive) | – | > 100 µM (inactive) | > 100 µM (inactive) | > 100 µM (inactive) | > 100 µM (inactive) | > 100 µM (inactive) | > 100 µM (inactive) |
| O=c1ccc(=O)n(-c2ccccc2)[nH]1 | > 100 µM (inactive) | > 100 µM (inactive) | > 100 µM (inactive) | > 100 µM (inactive) | > 100 µM (inactive) | > 100 µM (inactive) | > 100 µM (inactive) | > 100 µM (inactive) | > 100 µM (inactive) | > 100 µM (inactive) | > 100 µM (inactive) | > 100 µM (inactive) | > 100 µM (inactive) | > 100 µM (inactive) | > 100 µM (inactive) | > 100 µM (inactive) | > 100 µM (inactive) | > 100 µM (inactive) | > 100 µM (inactive) | > 100 µM (inactive) |
| COc1cc(OC)c(OC)cc1/C=C/c1cnnc2ccccc12 | > 10 µM (inactive) | > 10 µM (inactive) | > 10 µM (inactive) | 7.85 µM (inactive) | > 10 µM (inactive) | 6.9 µM (inactive) | 4.33 µM (inactive) | > 10 µM (inactive) | > 10 µM (inactive) | > 10 µM (inactive) | > 10 µM (inactive) | 2.85 µM (inactive) | > 10 µM (inactive) | > 10 µM (inactive) | > 10 µM (inactive) | > 10 µM (inactive) | > 10 µM (inactive) | > 10 µM (inactive) | > 10 µM (inactive) | > 10 µM (inactive) |
| O=C1c2ccccc2C(=O)[C@@]23O[C@@]12C1(Oc2cccc4cccc(c24)O1)[C@@H]1O[C@@H]1[C@@H]3O | 4.71 µM (inactive) | 6.93 µM (inactive) | 2.64 µM (inactive) | 2.23 µM (inactive) | 3.36 µM (inactive) | 4.22 µM (inactive) | 15.2 µM (inactive) | 4.4 µM (inactive) | 13.6 µM (inactive) | 14 µM (inactive) | 4.94 µM (inactive) | 10.7 µM (inactive) | 2.68 µM (inactive) | 9.18 µM (inactive) | 2.7 µM (inactive) | 9.91 µM (inactive) | 17.8 µM (inactive) | 4.19 µM (inactive) | 26.9 µM (inactive) | 7.1 µM (inactive) |
| C1=N\CCOCC/N=C/c2ccccc2OCc2cccc(n2)COc2ccccc2/1 | 6.38 µM (inactive) | 4.79 µM (inactive) | 3.2 µM (inactive) | 2.38 µM (inactive) | 20.3 µM (inactive) | – | 8.93 µM (inactive) | 4.99 µM (inactive) | 12.5 µM (inactive) | 7.85 µM (inactive) | 5.22 µM (inactive) | 2.83 µM (inactive) | 4.88 µM (inactive) | 7.98 µM (inactive) | 4.91 µM (inactive) | 13 µM (inactive) | 5.26 µM (inactive) | 6.03 µM (inactive) | > 25 µM (inactive) | 6.04 µM (inactive) |
| Cc1[nH]c(-c2ccccc2)c(O)c1C(=O)OC12CC3CC(CC(C3)C1)C2 | 12.9 µM (inactive) | 16.2 µM (inactive) | 11 µM (inactive) | > 100 µM (inactive) | 10.1 µM (inactive) | – | 15.5 µM (inactive) | 16.7 µM (inactive) | 16.3 µM (inactive) | 5.01 µM (inactive) | 3.99 µM (inactive) | 10.8 µM (inactive) | 37 µM (inactive) | 17 µM (inactive) | 12.5 µM (inactive) | 13.9 µM (inactive) | 13.8 µM (inactive) | 16.3 µM (inactive) | 20.5 µM (inactive) | 14.9 µM (inactive) |
| O=c1[nH]nc(Cc2ccccc2)n1/N=C/c1c(O)ccc2ccccc12 | 21 µM (inactive) | 43.5 µM (inactive) | 19.8 µM (inactive) | 23.2 µM (inactive) | 16.6 µM (inactive) | 54 µM (inactive) | 22.9 µM (inactive) | 20.2 µM (inactive) | 27.2 µM (inactive) | 19.7 µM (inactive) | 28.4 µM (inactive) | 17.7 µM (inactive) | 19.8 µM (inactive) | 36.1 µM (inactive) | 26.4 µM (inactive) | 47.4 µM (inactive) | – | 17.2 µM (inactive) | 18.5 µM (inactive) | 18.2 µM (inactive) |
| C=C(C)C12OC3(c4ccccc4)OC1C1C4OC4(CO)C(O)C4(O)C(=O)C(C)=CC4C1(O3)C(C)C2OC(=O)/C=C/C=C/c1ccccc1 (stereo not given) | 0.357 µM (active) | – | 0.372 µM (active) | < 0.0005 µM (active) | 0.267 µM (active) | 0.0968 µM (active) | 0.111 µM (active) | 0.228 µM (active) | 0.312 µM (active) | 0.156 µM (active) | 0.0836 µM (active) | 0.132 µM (active) | 0.107 µM (active) | 0.0702 µM (active) | 0.113 µM (active) | < 0.0005 µM (active) | 0.0802 µM (active) | 0.173 µM (active) | < 0.0005 µM (active) | 0.197 µM (active) |
